Source: patent publication US20080220056A1, “Treatment for liver disease” (UNIVERSITY OF SOUTHAMPTON, priority 2002, published 2008)

Key:
[1] = test system: human hepatic stellate cells; assay: Hepatic stellate cell apoptosis by acridine orange staining and counting (cycloheximide or serum deprivation), human cells; format: cell-based; conditions: human hepatic stellate cells
Protocol: Human hepatic stellate cells were extracted from the margins of normal human liver resected for colonic metastatic disease as previously described (Iredale et al., Clin. Sci., (1995) 89: 75-81). Rat hepatic stellate cells were extracted from normal rat liver by Pronase and collagenase digestion and purified by centrifugal elutriation as described (Arthur et al., J. Clin. Invest., (1989) 84:1076-1085). Extracted hepatic stellate cells were cultured on plastic until they were activated to a myofibroblastic phenotype after 7 to 10 days. Human and rat hepatic stellate cells were used for experiments after activation in primary culture or before fourth passage. Cells were cultured in Dulbecco's modified Eagle's medium in the presence of 16% fetal calf serum and antibiotics.
Apoptosis of hepatic stellate cells was induced by absolute serum deprivation, cycloheximide treatment (Issa et al., Gut (2001) 48: S48-S57), or exposure to nerve growth factor as previously described (Trim et al., Am. J. Pathol., (2000) 156, 1235-1243). Hepatic stellate cells were cultured in 24-well tissue culture plates. […] Following a 4 hour incubation at 37° C., nuclear morphology was assessed by adding acridine orange to each well (final concentration 1 μg/ml) and observing the cells under blue fluorescence. The total number of apoptotic bodies was counted, and any apoptotic bodies floating in the supernatant were included by racking up the objective lens. The total number of cells per field was counted, and an apoptotic index was calculated. Each condition was performed in duplicate, and three high power fields were counted for each well. […] To examine for autocrine effects, hepatic stellate cells were incubated for 18 hours with azide-free polyclonal neutralizing antibodies to TIMP-1 and a nonimmune IgG control (Santa Cruz Biotechnology, Inc., Santa Cruz, Calif.), and responses were assessed by acridine orange staining and counting.
Apoptosis was assessed by acridine orange staining. […]

[2] = target: T1, recombinant human caspase-3 (Homo sapiens, UniProt P42574); assay: Direct effect on recombinant caspase-3; format: biochemical; conditions: TIMP-1 285-2850 ng/ml, 1 hour preincubation
T1 construct: purchased Calbiochem
T1 sequence (P42574 29-175 limits assumed): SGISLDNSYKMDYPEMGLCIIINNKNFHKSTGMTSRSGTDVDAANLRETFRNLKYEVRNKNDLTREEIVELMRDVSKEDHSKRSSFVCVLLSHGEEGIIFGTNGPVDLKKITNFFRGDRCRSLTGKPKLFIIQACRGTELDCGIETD
T1 sequence (P42574 176-277 limits assumed): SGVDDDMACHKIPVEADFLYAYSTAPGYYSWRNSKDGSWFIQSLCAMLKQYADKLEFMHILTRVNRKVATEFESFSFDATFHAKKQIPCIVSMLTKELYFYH
Protocol: Apoptosis was quantified by a colorimetric assay for caspase-3 activity (Promega) according to the manufacturer's instructions.
To exclude a direct effect of TIMP-1 on caspase-3 activity, recombinant human caspase-3 (Calbiochem) was incubated with TIMP-1 in varying concentrations (285-2850 ng/ml) for 1 hour before caspase-3 substrate was added to the reaction.

## TIMP-1: recombinant tissue inhibitor of matrix metalloproteases 1 (Biogenesis)
[1]
  apoptosis of human HSC (cycloheximide 4 h or serum deprivation 18 h): identical antiapoptotic effects
[2]
  direct effect on caspase-3 activity: did not reduce caspase-3 activity directly
